The source made the active and inactive calls. The rule behind the calls is not given here.
How the values were obtained:
HEK293 [1] = assay: Cytotoxicity against HEK293 cells expressing OCT1 assessed as reduction in cell viability at 250 uM incubated for 12 hrs by resazurin dye based assay; assay type: toxicity; conditions: human, hek293, 12 h
[2] = biological target: T1, Solute carrier family 22 member 2 (Homo sapiens, UniProt O15244); assay: Inhibition of OCT2(unknown origin)-mediated ASP+ uptake in HEK293 cells expressing OCT2 using ASP+ as substrate incubated for 5 mins; assay type: cell-based
T1 sequence (O15244 whole entry): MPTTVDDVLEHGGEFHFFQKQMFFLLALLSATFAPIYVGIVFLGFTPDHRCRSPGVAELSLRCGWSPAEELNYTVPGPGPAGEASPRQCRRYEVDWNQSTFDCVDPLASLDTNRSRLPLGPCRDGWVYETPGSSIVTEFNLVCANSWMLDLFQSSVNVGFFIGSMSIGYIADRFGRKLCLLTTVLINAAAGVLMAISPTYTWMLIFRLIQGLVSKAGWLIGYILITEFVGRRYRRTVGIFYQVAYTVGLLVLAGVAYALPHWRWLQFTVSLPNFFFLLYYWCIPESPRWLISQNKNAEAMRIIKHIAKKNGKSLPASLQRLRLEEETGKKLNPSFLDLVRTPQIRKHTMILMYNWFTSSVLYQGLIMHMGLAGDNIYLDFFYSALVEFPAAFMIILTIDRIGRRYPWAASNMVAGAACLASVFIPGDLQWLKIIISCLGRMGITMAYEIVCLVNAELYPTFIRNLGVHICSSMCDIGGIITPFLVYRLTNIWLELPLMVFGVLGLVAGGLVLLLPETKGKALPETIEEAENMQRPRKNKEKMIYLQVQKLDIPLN

HEK293 [3] = assay: Cytotoxicity against HEK293 cells harboring empty vector assessed as reduction in cell viability at 250 uM incubated for 12 hrs by resazurin dye based assay; assay type: toxicity; conditions: human, hek293, 12 h
OCT1 (SLC22A1) = biological target: T2, OCT1 (SLC22A1) (Homo sapiens, UniProt O15245); assay: Inhibition of OCT1(unknown origin)-mediated ASP+ uptake in HEK293 cells expressing OCT1 using ASP+ as substrate at 50 uM incubated for 5 mins by fluorescence based microplate reader analysis relative to control; assay type: cell-based; conditions: HEK293 cells expressing OCT1, probe ASP+
T2 sequence (O15245 whole entry): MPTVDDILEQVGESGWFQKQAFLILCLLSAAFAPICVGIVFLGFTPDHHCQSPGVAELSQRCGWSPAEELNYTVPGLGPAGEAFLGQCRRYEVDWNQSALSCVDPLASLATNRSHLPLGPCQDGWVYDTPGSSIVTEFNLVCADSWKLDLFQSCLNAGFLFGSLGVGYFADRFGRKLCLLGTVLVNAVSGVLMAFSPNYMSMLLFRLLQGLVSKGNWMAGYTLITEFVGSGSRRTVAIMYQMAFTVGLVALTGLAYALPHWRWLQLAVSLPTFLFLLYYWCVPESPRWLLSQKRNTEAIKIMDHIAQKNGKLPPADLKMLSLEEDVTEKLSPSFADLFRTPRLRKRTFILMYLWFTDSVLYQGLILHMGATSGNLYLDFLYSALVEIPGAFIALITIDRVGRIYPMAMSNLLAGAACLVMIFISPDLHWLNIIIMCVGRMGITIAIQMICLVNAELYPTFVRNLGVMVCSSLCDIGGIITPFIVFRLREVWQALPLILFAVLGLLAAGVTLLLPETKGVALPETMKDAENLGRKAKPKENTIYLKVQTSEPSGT

HEK293 [4] = assay: Cytotoxicity against HEK293 cells expressing OCT2 assessed as reduction in cell viability at 250 uM incubated for 12 hrs by resazurin dye based assay; assay type: toxicity; conditions: human, hek293, 12 h
[5] = biological target: T3, Solute carrier family 22 member 1 (Homo sapiens, UniProt O15245); assay: Inhibition of OCT1(unknown origin)-mediated ASP+ uptake in HEK293 cells expressing OCT1 using ASP+ as substrate incubated for 5 mins; assay type: cell-based
T3 sequence (O15245 whole entry): T2 sequence (O15245 whole entry)

HEK293 [6] = assay: Selectivity index, ratio of IC50 for inhibition of OCT2(unknown origin)-mediated ASP+ uptake in HEK293 cells expressing OCT2 to IC50 for inhibition of OCT1(unknown origin)-mediated ASP+ uptake in HEK293 cells expressing OCT1; assay type: cell-based; conditions: Homo sapiens
[7] = Activation of AMPK signalling pathway in human HepG2 cells expressing OCT1 assessed as decrease in ACC mRNA expression at 2.5 to 10 uM incubated for 1 to 24 hrs by qRT-PCR analysis; assay type: cell-based; conditions: filed as activator, dose 2.5-10 µM, time 1-24 hrs
[8] = Activation of AMPK signalling pathway in human HepG2 cells expressing OCT1 assessed as decrease in FASN mRNA expression at 2.5 to 10 uM incubated for 1 to 24 hrs by qRT-PCR analysis; assay type: cell-based; conditions: filed as activator, dose 2.5-10 µM, time 1-24 hrs
HepG2 [9] = assay: Inhibition of FFA-induced lipid accumulation in human HepG2 cells expressing OCT1 at 10 uM incubated for 24 hrs by Oil Red O staining based microscopic analysis; assay type: functional, cell-based
[10] = Activation of AMPK signalling pathway in human L02 cells expressing OCT1 assessed as decrease in FASN mRNA expression at 2.5 to 10 uM incubated for 1 to 24 hrs by qRT-PCR analysis; assay type: cell-based; conditions: filed as activator, dose 2.5-10 µM, time 1-24 hrs
[11] = Activation of AMPK signalling pathway in human HepG2 cells expressing OCT1 assessed as increase in AMPK phosphorylation at 2.5 to 10 uM incubated for 1 to 24 hrs by Western blot analysis; assay type: cell-based; conditions: filed as activator, dose 2.5-10 µM, time 1-24 hrs
[12] = Activation of AMPK signalling pathway in human L02 cells expressing OCT1 assessed as increase in AMPK phosphorylation at 2.5 to 10 uM incubated for 1 to 24 hrs by Western blot analysis; assay type: cell-based; conditions: filed as activator, dose 2.5-10 µM, time 1-24 hrs
HepG2 [13] = assay: Inhibition of FFA-induced lipid accumulation in human HepG2 cells expressing OCT1 assessed as decrease in triglyceride level at 10 uM incubated for 24 hrs; assay type: functional, cell-based
L02 [14] = assay: Inhibition of FFA-induced lipid accumulation in human L02 cells expressing OCT1 at 10 uM incubated for 24 hrs by Oil Red O staining based microscopic analysis; assay type: functional, cell-based
L02 [15] = assay: Inhibition of FFA-induced lipid accumulation in human L02 cells expressing OCT1 assessed as decrease in triglyceride level at 10 uM incubated for 24 hrs; assay type: functional, cell-based
[16] = Activation of AMPK signalling pathway in human L02 cells expressing OCT1 assessed as decrease in ACC mRNA expression at 2.5 to 10 uM incubated for 1 to 24 hrs by qRT-PCR analysis; assay type: cell-based; conditions: filed as activator, dose 2.5-10 µM, time 1-24 hrs

Compound	Activity (HEK293 [1])	IC50 [2]	Activity (HEK293 [3])	inhibition at 5 min, 50 µM (OCT1 (SLC22A1))	Activity (HEK293 [4])	IC50 [5]	Ratio IC50 (HEK293 [6])	Activity [7]	Activity [8]	inhibition (HepG2 [9])	Activity [10]	Activity [11]	Activity [12]	inhibition (HepG2 [13])	inhibition (L02 [14])	inhibition (L02 [15])	Activity [16]
C/C=C1\C2CC(=O)OC[C@@H](c3ccc(O)c(O)c3)OC[C@H]3O[C@@H](O[C@@H]1OC=C2C(=O)OC)[C@H](O)[C@@H](O)[C@@H]3O	Non-Toxic	1270 µM	Non-Toxic	> 50%	Non-Toxic	47.3 µM	–	–	–	–	–	–	–	–	–	–	–
O=c1cc(-c2ccc(O)c(O)c2)oc2cc(O)cc(O)c12 [LUTEOLIN]	Non-Toxic	41 µM	Non-Toxic	> 50%	Non-Toxic	46.1 µM	–	–	–	–	–	–	–	–	–	–	–
CNC(=C[N+](=O)[O-])NCCSCc1ccc(CN(C)C)o1 [RANITIDINE]	–	1620 µM	–	–	–	28 µM	39.6	–	–	–	–	–	–	–	–	–	–
COc1cc(O)c2c(c1)oc(=O)c1c3cc(O)c(O)cc3oc21 [WEDELOLACTONE]	Non-Toxic	17.3 µM	Non-Toxic	> 50%	Non-Toxic	38.4 µM	–	–	–	–	–	–	–	–	–	–	–
CC(C)=CCc1cc(-c2cc(=O)c3c(O)cc(O)c(CC=C(C)C)c3o2)cc(O)c1O	Non-Toxic	33.1 µM	Non-Toxic	> 50%	Non-Toxic	40.2 µM	–	–	–	–	–	–	–	–	–	–	–
C[C@H]1O[C@@H](O[C@H]2CC[C@@]3(C)[C@@H](CC[C@]4(C)[C@@H]3C=CC3=C5CC(C)(C)CC[C@]5(CO)[C@@H](O)C[C@]34C)[C@]2(C)CO)[C@H](O)[C@@H](O[C@@H]2O[C@H](CO)[C@@H](O)[C@H](O)[C@H]2O)[C@H]1O	Non-Toxic	69.5 µM	Non-Toxic	> 50%	Non-Toxic	35.2 µM	–	–	–	–	–	–	–	–	–	–	–
C[C@@H]1CC[C@@]2(OC1)O[C@H]1C[C@H]3[C@@H]4CC=C5C[C@@H](O)C[C@@H](O[C@@H]6O[C@H](C)[C@H](O)[C@H](O[C@@H]7OC[C@@H](O)[C@H](O)[C@H]7O)[C@H]6O[C@@H]6O[C@@H](C)[C@H](O)[C@@H](O)[C@H]6O)[C@]5(C)[C@H]4CC[C@]3(C)[C@H]1[C@@H]2C	Non-Toxic	19.1 µM	Non-Toxic	> 50%	Non-Toxic	41.3 µM	–	–	–	–	–	–	–	–	–	–	–
CC(C)=CCc1c(O)cc(O)c2c(=O)c(O[C@@H]3O[C@@H](C)[C@H](O)[C@@H](O)[C@H]3O[C@@H]3O[C@H](CO)[C@@H](O)[C@H](O)[C@H]3O)c(-c3ccc(O)cc3)oc12	Non-Toxic	56.5 µM	Non-Toxic	> 50%	Non-Toxic	11.2 µM	–	–	–	–	–	–	–	–	–	–	–
C[C@@]12C[C@@]3(O)O[C@@H](O1)[C@]1(COC(=O)c4ccccc4)[C@H]3C[C@@]12O[C@@H]1O[C@H](COC(=O)c2ccccc2)[C@@H](O)[C@H](O)[C@H]1O	Non-Toxic	4120 µM	Non-Toxic	> 50%	Non-Toxic	3.46 µM	> 1000	Active	Active	Active	Active	Active	Active	Active	Active	Active	Active
COc1ccc(-c2oc3cc(OC)cc(OC)c3c(=O)c2OC)cc1 [TETRAMETHYLKAEMPFEROL]	Non-Toxic	39.5 µM	Non-Toxic	> 50%	Non-Toxic	47 µM	–	–	–	–	–	–	–	–	–	–	–
O=c1cc(-c2ccc(O)cc2)oc2cc(O)cc(O)c12 [APIGENIN]	Non-Toxic	30.9 µM	Non-Toxic	> 50%	Non-Toxic	38.9 µM	–	–	–	–	–	–	–	–	–	–	–
NC12CC3CC(CC(C3)C1)C2 [AMANTADINE]	–	45.9 µM	–	–	–	39.6 µM	1.16	–	–	–	–	–	–	–	–	–	–
